Laboratory results published in article PMC6274106, “Evaluation and Comparison of the Inhibition Effect of Astragaloside IV and Aglycone Cycloastragenol on Various UDP-Glucuronosyltransferase (UGT) Isoforms” (Molecules, 2016).

Assays:
Assay type in all cases: biochemical
UGT2B7 [1] = target: T1, UGT2B7 (Homo sapiens, UniProt P16662); test: 4-MU glucuronidation screen, […] inhibition at […]
T1 construct: recombinant human UGT supersomes (baculovirus-infected insect cells)
T1 sequence (P16662 24-529): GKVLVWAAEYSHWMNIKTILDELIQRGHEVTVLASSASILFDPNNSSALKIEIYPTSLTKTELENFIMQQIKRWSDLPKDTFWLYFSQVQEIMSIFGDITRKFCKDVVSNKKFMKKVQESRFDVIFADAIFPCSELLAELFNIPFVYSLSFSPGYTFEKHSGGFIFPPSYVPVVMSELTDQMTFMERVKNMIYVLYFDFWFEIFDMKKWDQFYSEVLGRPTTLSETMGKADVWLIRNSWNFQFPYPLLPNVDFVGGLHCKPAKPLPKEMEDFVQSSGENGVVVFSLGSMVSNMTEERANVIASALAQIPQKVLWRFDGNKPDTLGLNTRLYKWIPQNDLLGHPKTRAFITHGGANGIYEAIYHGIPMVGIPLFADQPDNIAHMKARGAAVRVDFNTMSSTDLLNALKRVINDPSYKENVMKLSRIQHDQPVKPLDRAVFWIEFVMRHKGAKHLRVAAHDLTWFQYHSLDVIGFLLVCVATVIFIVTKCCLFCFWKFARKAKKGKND

UGT1A8 = target: T2, UGT1A8 (Homo sapiens, UniProt Q9HAW9); test: 4-MU glucuronidation by recombinant UGT supersomes, UPLC-UV; Dixon and Lineweaver-Burk plots (IC50 […])
T2 construct: recombinant human UGT supersomes (baculovirus-infected insect cells)
T2 sequence (Q9HAW9 26-530): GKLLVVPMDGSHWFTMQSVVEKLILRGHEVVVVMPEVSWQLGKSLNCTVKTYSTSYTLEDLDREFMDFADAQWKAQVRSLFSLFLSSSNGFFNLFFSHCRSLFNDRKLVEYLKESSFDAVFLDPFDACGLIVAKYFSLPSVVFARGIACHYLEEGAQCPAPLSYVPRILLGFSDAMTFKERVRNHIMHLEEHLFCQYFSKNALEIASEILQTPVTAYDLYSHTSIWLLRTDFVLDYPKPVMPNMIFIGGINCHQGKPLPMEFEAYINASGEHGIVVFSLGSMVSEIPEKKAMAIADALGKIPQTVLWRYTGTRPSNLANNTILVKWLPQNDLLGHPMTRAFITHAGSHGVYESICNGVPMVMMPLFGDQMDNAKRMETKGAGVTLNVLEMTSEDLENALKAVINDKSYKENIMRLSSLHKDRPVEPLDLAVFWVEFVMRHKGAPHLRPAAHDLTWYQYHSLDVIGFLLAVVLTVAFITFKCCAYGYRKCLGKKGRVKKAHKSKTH

UGT1A3 = target: T3, UGT1A3 (Homo sapiens, UniProt P35503); test: 4-MU glucuronidation screen, […] inhibition at […]
T3 construct: recombinant human UGT supersomes (baculovirus-infected insect cells)
T3 sequence (P35503 29-534): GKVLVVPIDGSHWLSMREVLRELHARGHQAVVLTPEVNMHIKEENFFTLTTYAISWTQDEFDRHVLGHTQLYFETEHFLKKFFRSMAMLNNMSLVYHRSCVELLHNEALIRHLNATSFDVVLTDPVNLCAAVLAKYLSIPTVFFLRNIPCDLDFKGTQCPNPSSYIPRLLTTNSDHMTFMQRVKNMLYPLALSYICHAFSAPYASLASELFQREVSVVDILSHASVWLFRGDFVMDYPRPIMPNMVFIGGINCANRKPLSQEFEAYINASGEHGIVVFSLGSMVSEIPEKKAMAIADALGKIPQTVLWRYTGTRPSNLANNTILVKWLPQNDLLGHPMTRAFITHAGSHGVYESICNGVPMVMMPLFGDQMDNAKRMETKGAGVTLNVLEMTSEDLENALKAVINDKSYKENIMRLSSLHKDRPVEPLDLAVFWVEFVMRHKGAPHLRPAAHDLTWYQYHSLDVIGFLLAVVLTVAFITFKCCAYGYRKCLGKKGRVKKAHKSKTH

UGT1A1 = target: T4, UGT1A1 (Homo sapiens, UniProt P22309); test: 4-MU glucuronidation screen, […] inhibition at […]
T4 construct: recombinant human UGT supersomes (baculovirus-infected insect cells)
T4 sequence (P22309 26-533): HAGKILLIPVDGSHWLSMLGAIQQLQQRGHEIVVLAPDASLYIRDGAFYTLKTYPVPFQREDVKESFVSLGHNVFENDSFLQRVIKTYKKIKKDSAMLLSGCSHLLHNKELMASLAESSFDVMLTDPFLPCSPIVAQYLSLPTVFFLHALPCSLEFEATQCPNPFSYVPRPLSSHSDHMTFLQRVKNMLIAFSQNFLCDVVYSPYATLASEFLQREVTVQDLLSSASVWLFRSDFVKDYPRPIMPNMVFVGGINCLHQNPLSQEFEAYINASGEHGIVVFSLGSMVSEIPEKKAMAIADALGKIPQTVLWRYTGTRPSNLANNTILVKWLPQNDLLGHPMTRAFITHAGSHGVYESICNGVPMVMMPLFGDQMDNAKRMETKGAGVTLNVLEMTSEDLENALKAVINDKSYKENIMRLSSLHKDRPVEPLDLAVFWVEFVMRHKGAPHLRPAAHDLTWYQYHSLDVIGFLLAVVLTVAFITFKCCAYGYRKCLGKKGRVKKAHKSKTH

UGT2B7 [2] = target: T1, UGT2B7; test: 4-MU glucuronidation by recombinant UGT supersomes, UPLC-UV; Dixon and Lineweaver-Burk plots (IC50 […])

## CC(C)(O)[C@@H]1CC[C@](C)([C@H]2[C@@H](O)C[C@@]3(C)[C@@H]4C[C@H](O[C@@H]5O[C@H](CO)[C@@H](O)[C@H](O)[C@H]5O)[C@H]5C(C)(C)[C@@H](O[C@@H]6OC[C@@H](O)[C@H](O)[C@H]6O)CC[C@@]56C[C@@]46CC[C@]23C)O1 [AST, astragaloside IV]
UGT2B7 [1]
  inhibition at 100 µM: 51.5%

## CC(C)(O)[C@@H]1CC[C@](C)([C@H]2[C@@H](O)C[C@@]3(C)[C@@H]4C[C@H](O)[C@H]5C(C)(C)[C@@H](O)CC[C@@]56C[C@@]46CC[C@]23C)O1 [CAG, cycloastragenol]
UGT1A8
  Ki: 0.034 µM
UGT1A3
  inhibition at 100 µM: 75.2%
UGT1A1
  inhibition at 100 µM: 50.2%
UGT2B7 [2]
  Ki: 21 µM
